Measured values from patent US20220356164A1, “2-AMINOSELENOPHEN COMPOUNDS WITH ANTI-DRUG RESISTANT BACTERIA ACTIVITY AND A METHOD OF PREPARING THE SAME” (ZHUHAI JINAN SELENIUM SOURCE NANOTECHNOLOGY CO., LTD., priority 2021, published 2022).
Converted amounts (≈) assume the structure as drawn. Where two headings read alike, the source gives them in different places.

What was measured:
Assay type in all cases: cell-based
[1] = tested on: multi-drug-resistant Pseudomonas aeruginosa MDR-PA 18-126; experiment: micro broth dilution MIC, MDR-PA 18-126
Text: (§1) Using micro broth dilution method, with ceftazidime and vancomycin as positive controls, test the minimum inhibitory concentration (MIC) of compounds 9, 11, and 14.
(§2) The experimental strains included drug-resistant gram-positive bacteria: methicillin-resistant Staphylococcus aureus MRSA 18-575, 18-596; drug-resistant gram-negative bacteria: multi-drug-resistant Pseudomonas aeruginosa MDR-PA 18-126, 18-756. The experimental strains were all donated by Huashan Hospital Affiliated to Fudan University (Fudan University Antibiotic Research Institute), and used after being identified by conventional methods.
(§3) The specific steps are as follows:
(§4) Preparation of MHB medium: Weigh 20.0 g of MHB medium, add it to 1L of distilled water, heat and boil until it is completely dissolved, divide it into conical flasks, autoclave at 121° C. for 15 minutes, and set aside.
(§5) Cultivate the experimental strains to the logarithmic growth phase: under aseptic conditions, inoculate the experimental strains into 100 mL of MHB medium, and place them in a constant temperature and humidity incubator at 37° C. for 20-22 hours for use.
(§6) Preparation of stock solution: Weigh the sample to be tested and dissolve it with 1% DMSO solution to prepare a stock solution with a concentration of 2560 μg/mL; weigh the positive control substance and dissolve it with sterile distilled water to prepare a stock solution with a concentration of 2560 μg/mL.
(§7) Bacterial suspension preparation: Under aseptic conditions, the experimental strains cultured to the logarithmic growth phase are calibrated to 0.5 McDonald's unit turbidity standard with MHB medium and diluted at a ratio of […] to prepare a concentration of 10^6 CFU/mL Bacterial suspension, spare.
(§8) Stock solution dilution and inoculation of experimental strains: under aseptic conditions, dilute the stock solution to a solution of 256 μg/mL. Take a sterile 96-well plate, add 100 μL of MHB medium to each well except for wells 1-3; add 100 μL of positive control solution to well 2 and 100 μL of compound sample solution to wells 3 and 4; Mix the sample solution in the well with the culture medium, and then pipet 100 μL to the fifth well. After mixing, pipet 100 μL to the sixth well, and then dilute to the tenth well by successive times, and then take 100 μL from the tenth well and discard it. The 11th well is a growth control without drugs; then, add 100 μL of the above-prepared bacterial suspension to each well, so that the final bacterial concentration in each well is 5×10^5 CFU/mL; at this point, the positive control concentration is 128 μg/mL, the concentration of the sample solution is 128, 64, 32, 16, 8, 4, 2, 1 μg/mL.
(§9) Incubation: Cover the 96-well plate that has been inoculated with experimental strains and place it in a constant temperature and humidity box at 37° C. for 20-22 hours.
(§10) Record the results as shown in FIGS. 1 to 10 (the holes are in order from left to right corresponding to positive, 128, 64, 32, 16, 8, 4, 2, 1, negative) and Table 1.

[2] = tested on: multi-drug-resistant Pseudomonas aeruginosa MDR-PA 18-756; experiment: micro broth dilution MIC, MDR-PA 18-756; settings: read-out: The minimum inhibitory concentration, MDR-PA 18-756
Text: as §1, §2, §3, §4, §5, §6, §7
as §8, with “1 μg/mL. […]” for “1 μg/mL.”

[3] = tested on: methicillin-resistant Staphylococcus aureus MRSA 18-596; experiment: micro broth dilution MIC, MRSA 18-596
Text: as §1, §2, §3, §4, §5, §6, §7, §8, §9, §10

[4] = tested on: methicillin-resistant Staphylococcus aureus MRSA 18-575; experiment: micro broth dilution MIC, MRSA 18-575; settings: read-out: The minimum inhibitory concentration, MRSA 18-575
Text: as §1, §2, §3, §4, §5, §6, §7, §8, §9, §10

[5] = read-out: The minimum inhibitory concentration, MDR-PA 18-126
[6] = MRSA, read-out: The minimum inhibitory concentration, MRSA 18-596

| SMILES | MIC ([1]; strain MDR-PA 18-126, MHB medium, 37° C., 20-22 hours, read-out: The minimum inhibitory concentration, MDR-PA 18-126) | MIC ([2]; strain MDR-PA 18-756, MHB medium, 37° C., 20-22 hours) | MIC ([3]; strain MRSA 18-596, MHB medium, 37° C., 20-22 hours, read-out: The minimum inhibitory concentration, MRSA 18-596) | MIC ([4]; strain MRSA 18-575, MHB medium, 37° C., 20-22 hours) | MIC [1, 5] | MIC [2] | MIC [3, 6] | MIC ([4]; MRSA) | MIC ([1]; read-out: MIC against MDR-PA) | MIC ([3]; MRSA, read-out: MIC against drug-resistant gram-positive bacteria MRSA) |
| --- | --- | --- | --- | --- | --- | --- | --- | --- | --- | --- |
| CC(C)(O/N=C(\C(=O)N[C@@H]1C(=O)N2C(C(=O)[O-])=C(C[n+]3ccccc3)CS[C@H]12)c1csc(N)n1)C(=O)O [Ceftazidime, reference compound] | 128 µg/mL (≈ 234 µM) | 128 µg/mL (≈ 234 µM) | 128 µg/mL (≈ 234 µM) | 128 µg/mL (≈ 234 µM) | – | – | – | – | – | – |
| N#Cc1c(N)[se]c2c1CCCC2 [Compound 9] | – | – | – | – | > 128 µg/mL | 128 µg/mL (≈ 569 µM) | 128 µg/mL (≈ 569 µM) | 128 µg/mL (≈ 569 µM) | – | – |
| N#Cc1c(N)[se]c2c1CCCCC2 [Compound 11] | – | – | – | – | 64 µg/mL (≈ 268 µM) | 64 µg/mL (≈ 268 µM) | 16 µg/mL (≈ 66.9 µM) | 32 µg/mL (≈ 134 µM) | 64 µg/mL (≈ 268 µM) | 16 µg/mL (≈ 66.9 µM) |
| CCCCc1c[se]c(N)c1C#N [Compound 14] | – | – | – | – | 64 µg/mL (≈ 282 µM) | > 128 µg/mL | 64 µg/mL (≈ 282 µM) | 128 µg/mL (≈ 563 µM) | – | – |
| CN[C@H](CC(C)C)C(=O)N[C@H]1C(=O)N[C@@H](CC(N)=O)C(=O)N[C@H]2C(=O)N[C@H]3C(=O)N[C@H](C(=O)N[C@H](C(=O)O)c4cc(O)cc(O)c4-c4cc3ccc4O)[C@H](O)c3ccc(c(Cl)c3)Oc3cc2cc(c3O[C@@H]2O[C@H](CO)[C@@H](O)[C@H](O)[C@H]2O[C@H]2C[C@](C)(N)[C@H](O)[C@H](C)O2)Oc2ccc(cc2Cl)[C@H]1O [Vancomycin, reference compound] | – | – | – | – | – | – | 512 µg/mL (≈ 353 µM) | 512 µg/mL (≈ 353 µM) | – | – |
